Assays:
CMTR2 [1] = target: T1, CMTR2 (Mus musculus, UniProt Q8BWQ4); experiment: Proteomics target identification (anti-cholesterol IP and chemical pulldown) from 4T1 lysate; assay type: binding
T1 construct: endogenous in cells; host or cells: 4T1 cells (lysate)
T1 sequence (Q8BWQ4 1-767): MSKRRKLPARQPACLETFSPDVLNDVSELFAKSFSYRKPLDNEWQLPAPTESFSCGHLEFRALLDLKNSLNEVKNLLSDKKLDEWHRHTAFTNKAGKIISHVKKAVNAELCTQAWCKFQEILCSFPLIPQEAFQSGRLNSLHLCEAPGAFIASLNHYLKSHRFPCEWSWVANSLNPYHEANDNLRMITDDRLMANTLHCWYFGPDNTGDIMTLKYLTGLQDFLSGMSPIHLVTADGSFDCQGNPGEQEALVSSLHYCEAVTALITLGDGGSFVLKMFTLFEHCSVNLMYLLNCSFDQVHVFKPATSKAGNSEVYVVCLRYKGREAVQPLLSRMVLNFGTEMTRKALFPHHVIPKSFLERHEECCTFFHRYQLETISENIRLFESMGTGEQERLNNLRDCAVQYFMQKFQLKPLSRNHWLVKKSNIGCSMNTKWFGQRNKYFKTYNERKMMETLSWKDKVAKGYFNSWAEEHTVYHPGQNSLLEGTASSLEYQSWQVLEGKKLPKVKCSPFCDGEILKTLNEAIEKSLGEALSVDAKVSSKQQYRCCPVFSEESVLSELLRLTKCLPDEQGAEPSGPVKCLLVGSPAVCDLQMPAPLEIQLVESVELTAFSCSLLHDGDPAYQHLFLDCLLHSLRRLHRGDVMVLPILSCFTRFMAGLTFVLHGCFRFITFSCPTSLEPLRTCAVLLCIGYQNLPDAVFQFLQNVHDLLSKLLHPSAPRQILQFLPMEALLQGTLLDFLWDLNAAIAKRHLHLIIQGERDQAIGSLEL
Protocol: (§1) Cap-specific mRNA (nucleoside-2′-O-)-methyltransferase 2 (CMTR2) is an enzyme that methylates at the 2′-O position of the second transcribed nucleotide of mRNAs.
In this example, two different proteomics approach were used to identify the target of Compound 1: (i) an anti-drug antibody (binds to cholesterol in Compound 1) and (ii) Compound A-1, where both (i) and (ii) were used to precipitate targets from 4T1 lysates. The 4T1 cell lysate was treated with pegylated Compound 1 for 20 hours. The 4T1 cells lysate was, independently, combined with the proteins of Table A or treated with Compound 1 and then combined with the proteins of Table A. Precipitated proteins were digested into peptides and identified using LC-MS/MS. Table A provides a summary of the proteins identified from both approaches that were enriched in Compound 1 samples above the background.

4T1 cells [2] = experiment: Interferon pathway / anti-viral response in 4T1 cells (RT-q-PCR, iBlot); assay type: cell-based
Protocol: RT-q-PCR was performed with RNA extracted from 4T1 cells treated with 30 μM of Compound 1 or vehicle for 24 h. […] The result is representative of n=3.
See, FIG. 16. The unmethylated mRNA generated due to inhibition of CMTR2 activity leads to recognition by sensors like MDA5 and TLR3 in conjunction with adapters like TRIF.

4T1 cells [3] = experiment: Intracellular distribution of platinum and intact drug in 4T1 cells (AAS, RPHPLC); assay type: cell-based; details: 50 μM
Protocol: The remaining insoluble proteins were resuspended in RIPA lysis buffer. The leftover genomic DNA (gDNA) pellet was treated with methanol to dissociate any non-covalently bound platinum from the gDNA. All the fractions were assayed by atomic absorption spectroscopy (AAS) to determine their Pt content. […] Data was generated from three independent biological experiments and error represents standard error of mean.

CMTR2 [4] = target: T1, CMTR2; experiment: Binding of CMTR2 to Compound 1 by ELISA
Description: as §1

4T1 tumors = experiment: 4T1 breast tumors in mice in vivo; parameters: species or system BALB/c mice
[5] = Pharmacokinetics after single i.v. bolus in tumor bearing mice; assay type: in vivo, female Balb/c mice; details: plasma, LC-MS/MS, noncompartmental analysis
Protocol: The pharmacokinetic (PK) profile of Compound 1 was evaluated following single intravenous (i.v bolus) dosing in tumor bearing female Balb/c mice. Tumor and plasma samples were collected at various time points, sparse sampling (n=3). Plasma concentrations were determined using LC-MS/MS and later subjected to Phoenix WinNonlin Noncompartmental analysis and PK parameters were estimated.

4T1 cells [6] = experiment: CMTR2 levels in 4T1 cells upon treatment; assay type: cell-based
Description: as §1
Alternatively, the unmethylated mRNA could also be recognized by toll-like receptors (TLR) like TLR3. Both of these would trigger many interferon regulatory factors (IRFs) leading to a type-I interferon antiviral response. The interferons can induce interferon stimulated genes (ISGs) such as interferon induced tetratricopeptide repeat protein 1 (IFIT1), which binds to unmethylated mRNA with high affinity. Furthermore, the immune system would be activated by the interferons. Additionally, the unmethylated mRNA could be secreted out from the tumor cells resulting in B-cell activation.

Lewis lung carcinoma = experiment: Immunocompetent Lewis lung carcinoma model; assay type: in vivo, mice
Description: This model was therefore used to test whether the activation of both T cells, using a PD1 inhibitor, and B cells, using Compound 1, results in synergy. In this experiment, four groups of mice models for immunocompetent Lewis lung carcinoma were utilized. The mice were, independently, intravenously treated with control, Compound 1, anti-PD-1, or Compound 1+ anti-PD-1 and tumor growth monitored for at least 28 days post-tumor induction. The following table describes the treatments utilized in the experiment.

[7] = Single dose toxicity study in rats; assay type: in vivo; details: for ALP (Hepatic), Mean / ALT (Hepatic), Mean / AST (Hepatic), Mean / Creatinine (Renal), Mean / Hemoglobin (Anemia), Mean / Neutrophil (Neutropenia), Mean / Platelet (Thrombocytopenia), Mean: rat, in vivo
Protocol: Further, Compound 1 was also tested for safety end point evaluation in rats. […] Doses of 44 mg/kg, 88 mg/kg and 176 mg/kg were tested and 176 mg/kg was LTD.

[8] = tumors regressed by 20% on day three

CC(C)CCC[C@@H](C)[C@H]1CCC2C3CC=C4C[C@@H](OCCN(CC(=O)[O-])CC(=O)[O][Pt+]5[NH][C@@H]6CCCC[C@H]6[NH]5)CC[C@]4(C)C3CC[C@@]21C (stereo partly drawn) [Compound 1]
False discovery rate of CMTR2 as lead putative target (CMTR2 [1]; LC-MS/MS of proteins precipitated from 4T1 lysates): less than 1%
Binding to CMTR2 by proteomics (CMTR2 [1]; anti-cholesterol IP and chemical pulldown, 4T1 cell lysate): binds to CMTR2
mRNA expression of TLRs, IRF7 and IFN genes (4T1 cells [2]; 30 μM, 24 h, RT-q-PCR, n=3): robust increase in expression
Secreted (extracellular) INF-α levels (4T1 cells [2]; iBlot, FIG. 19A-19B): remarkably high
Intracellular INF-α levels (4T1 cells [2]; iBlot, FIGS. 18A-18B): significantly elevated
Innate anti-viral response (relative mRNA expression INF-α, IRF7, TRIF, TLR3) (4T1 cells [2]; varying concentration, FIG. 16): activation of the innate anti-viral response in a dose-dependent manner
IRF7 levels (4T1 cells [2]; varying concentrations, FIG. 17): increased levels in 4T1 cells in a dose-dependent manner
Intracellular integrity (intact concentration by RPHPLC vs platinum by AAS) (4T1 cells [3]): remains intact intracellularly
Binding of CMTR2 by ELISA (CMTR2 [4]): confirmed by ELISA
4T1 tumor ablation in mice lacking B cells (4T1 tumors; 88 mg/kg, 2 cycles, T and B-cell knockout (SCID) mice, FIG. 26): 4T1 tumor ablation does not happen in mice lacking B cells
Tumor growth following re-implantation of cancer cells (4T1 tumors; 88 mg/kg, 2 cycles, animals with previous tumor regression, FIG. 27): No tumor growth occurs
Tumor growth inhibition with increasing doses (4T1 tumors; 4T1 breast cancer-bearing mice, FIG. 10): clear dose-dependent effect
Infiltrating immune cells in tumor sections (immunohistology) (4T1 tumors; 50% regressed tumors): increased IGKC levels, and increased infiltration of memory B cells (CD20+) and plasma B cells (CD138)
B cell biomarker transcripts IGKC and CD21 in tumor (RTPCR) (4T1 tumors; FIGS. 8B to 8E): increase in IGKC and CD21
CD8a in tumor (RTPCR) (4T1 tumors; FIGS. 8B to 8E): increase in CD8a cells
4T1 tumor growth (4T1 tumors; administered on days 1, 2, 6, and 7, female Balb/c mice): ablated 4T1 tumors
Body weight (4T1 tumors; administered on days 1, 2, 6, and 7, up to 29 days post-implantation): without any loss in body weight
Tumor size of established 4T1 tumors (4T1 tumors; cumulative dose of 176 mg/kg per cycle, 2 cycles, immunocompetent syngeneic BALB/c mice): tumor regression is observed
% B-cell in tumor by FACS (4T1 tumors; day 3): infiltrating the tumor
IFIT1 levels in plasma (dot-blot) (4T1 tumors; days 3, 4, 5, and 8): elevated on days 3 to 8
INF-α levels in plasma (dot-blot) (4T1 tumors; days 3, 4, 5, and 8): elevated in plasma
B cell phenotype by FACS in draining lymph node and spleen (4T1 tumors; post-regression, spleen following rechallenge): increase in B cells with a reduction in Bregs
Tumor growth post rechallenge with cancer cells (immune memory) (4T1 tumors; reinjected with 4T1 cells twenty-five days post-regression, no additional treatment): absence of any tumor growth
IFN gene expression in 4T1 tumors (4T1 tumors; [8]): robust increase in expression
IRF3 and IRF7 gene expression in 4T1 tumors (4T1 tumors; [8]): increased expression is observed for IRF3 and IRF7
Estimated AUC versus dose [5]: increased linearly with dose
CMTR2 level in 4T1 cell lysate (4T1 cells [6]): dose-dependent upregulation of CMTR2
Tumor growth (Lewis lung carcinoma; different dose regimens, compared with a MTD dose of oxaliplatin): significant tumor growth inhibition
CD8a levels (immuno-transcripts) (Lewis lung carcinoma; mouse, in vivo): no increase was seen in CD8a levels
Combination effect with PD1 immune checkpoint inhibitor (Lewis lung carcinoma; mouse, in vivo): synergizes with PD1 immune checkpoint inhibitor
IGKC signal (immuno-transcripts) (Lewis lung carcinoma; mouse, in vivo): increase in IGKC signal
Tolerability of the remaining doses ([7]; 44 mg/kg and 88 mg/kg, single intravenous infusion (30 min)): well tolerated without any significant clinical signs
ALP (Hepatic), Mean ([7]; 44 mg/kg): 107.60 U/L
ALT (Hepatic), Mean ([7]; 44 mg/kg): 30.00 U/L
AST (Hepatic), Mean ([7]; 44 mg/kg): 110.60 U/L
Creatinine (Renal), Mean ([7]; 44 mg/kg): 0.49 mg/dL
Hemoglobin (Anemia), Mean ([7]; 44 mg/kg): 15.84 g/dL
Neutrophil (Neutropenia), Mean ([7]; 44 mg/kg): 0.72 × 10^3 cells/μL
Platelet (Thrombocytopenia), Mean ([7]; 44 mg/kg): 1201.2 × 10^3 cells/μL
ALP (Hepatic), Mean ([7]; 88 mg/kg): 133.00 U/L
ALT (Hepatic), Mean ([7]; 88 mg/kg): 25.60 U/L
AST (Hepatic), Mean ([7]; 88 mg/kg): 106.00 U/L
Creatinine (Renal), Mean ([7]; 88 mg/kg): 0.49 mg/dL
Hemoglobin (Anemia), Mean ([7]; 88 mg/kg): 14.92 g/dL
Neutrophil (Neutropenia), Mean ([7]; 88 mg/kg): 0.80 × 10^3 cells/μL
Platelet (Thrombocytopenia), Mean ([7]; 88 mg/kg): 1376.2 × 10^3 cells/μL
ALP (Hepatic), Mean ([7]; 176 mg/kg): 209.5 U/L
ALT (Hepatic), Mean ([7]; 176 mg/kg): 42.50 U/L
AST (Hepatic), Mean ([7]; 176 mg/kg): 141.50 U/L
Creatinine (Renal), Mean ([7]; 176 mg/kg): 0.52 mg/dL
LTD ([7]; single intravenous infusion (30 min), both genders): 176 mg/kg
